Test results reported in the supplement of paper PMC10307832.

Key:
Assay in all cases: relative viability (nuclei count vs DMSO), 5 days (fraction); higher = more cells survive
[1] = compound: C1CC(C1)(C(=O)O)C(=O)O.[NH2-].[NH2-].[Pt+2] [Carboplatin] + Cc1cc(Nc2cc(N3CCN(C)CC3)nc(Sc3ccc(NC(=O)C4CC4)cc3)n2)n[nH]1 [Tozasertib] (partner 0.1 µM)
Procedure, shortened: (§1)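 Lung cancer cell lines, seeded in 1536-well plates, were treated the following day by pin tool with a single drug or with five library-drug doses (not always all listed) in √10 steps on top of a fixed anchor-drug dose. Cells were fixed and nuclei stained in one step after 5 days, and nuclei were counted. Relative viability is the nuclei count for treated wells divided by that for vehicle wells, reported as medians of duplicate plates.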

[2] = compound: NS(=O)(=O)OC[C@@H]1C[C@@H](n2ccc3c(N[C@H]4CCc5ccccc54)ncnc32)C[C@@H]1O [MLN4924] + CC(C)C[C@H](NC(=O)[C@H](Cc1ccccc1)NC(=O)c1cnccn1)B(O)O [Bortezomib] (partner 0.002 µM)
Procedure, shortened: as §1

[3] = compound: NS(=O)(=O)OC[C@@H]1C[C@@H](n2ccc3c(N[C@H]4CCc5ccccc54)ncnc32)C[C@@H]1O [MLN4924] + CS(=O)(=O)N1CCN(Cc2cc3nc(-c4cccc5[nH]ncc45)nc(N4CCOCC4)c3s2)CC1 [Pictilisib] (partner 1 µM)
Procedure, shortened: as §1

[4] = compound: NS(=O)(=O)OC[C@@H]1C[C@@H](n2ccc3c(N[C@H]4CCc5ccccc54)ncnc32)C[C@@H]1O [MLN4924] + O=C(c1cc(Cc2n[nH]c(=O)c3ccccc23)ccc1F)N1CCN(C(=O)C2CC2)CC1 [Olaparib] (partner 8 µM)
Procedure, shortened: as §1

| Cell Line | relative viability ([1]; first compound 0.08 µM) | relative viability ([1]; first compound 0.253 µM) | relative viability ([1]; first compound 0.8 µM) | relative viability ([1]; first compound 2.53 µM) | relative viability ([1]; first compound 8 µM) | relative viability ([2]; first compound 0.04 µM) | relative viability ([2]; first compound 0.1265 µM) | relative viability ([2]; first compound 0.4 µM) | relative viability ([2]; first compound 1.265 µM) | relative viability ([2]; first compound 4 µM) | relative viability ([3]; first compound 0.04 µM) | relative viability ([3]; first compound 0.1265 µM) | relative viability ([3]; first compound 0.4 µM) | relative viability ([3]; first compound 1.265 µM) | relative viability ([3]; first compound 4 µM) | relative viability ([4]; first compound 0.04 µM) | relative viability ([4]; first compound 0.1265 µM) | relative viability ([4]; first compound 0.4 µM) | relative viability ([4]; first compound 1.265 µM) | relative viability ([4]; first compound 4 µM) |
| --- | --- | --- | --- | --- | --- | --- | --- | --- | --- | --- | --- | --- | --- | --- | --- | --- | --- | --- | --- | --- |
| SW 1573 | 0.2 | 0.191 | 0.19 | 0.173 | 0.207 | 1.03 | 0.932 | 0.249 | 0.0788 | 0.0726 | 0.487 | 0.637 | 0.22 | 0.0805 | 0.0657 | 0.486 | 0.303 | 0.108 | 0.0465 | 0.07 |
| NCI-H460 | 0.54 | 0.462 | 0.387 | 0.237 | 0.168 | 0.998 | 1.1 | 1.04 | 0.203 | 0.0203 | 0.506 | 0.729 | 0.618 | 0.191 | 0.0906 | 0.395 | 0.372 | 0.427 | 0.0925 | 0.0401 |
| COR-L23 | 0.237 | 0.217 | 0.186 | 0.144 | 0.148 | 0.936 | 0.915 | 0.587 | 0.186 | 0.105 | 0.711 | 0.71 | 0.159 | 0.104 | 0.0964 | 0.32 | 0.331 | 0.199 | 0.124 | 0.114 |
| NCI-H2009 | 0.848 | 0.694 | 0.76 | 0.613 | 0.45 | 0.889 | 0.275 | 0.27 | 0.079 | 0.0747 | 0.456 | 0.159 | 0.236 | 0.0505 | 0.0867 | 0.449 | 0.382 | 0.143 | 0.146 | 0.0556 |
| PC-3 [JPC-3] | 0.863 | 0.877 | 0.863 | 0.853 | 0.765 | 0.857 | 0.819 | 0.573 | 0.328 | 0.282 | 0.904 | 0.817 | 0.334 | 0.251 | 0.313 | 1.16 | 1.05 | 0.298 | 0.436 | 0.452 |
| NCI-H2085 | 0.899 | 0.875 | 0.727 | 0.902 | 0.788 | 1.09 | 1.09 | 1.1 | 0.76 | 0.648 | 0.479 | 0.719 | 0.594 | 0.457 | 0.42 | 0.837 | 0.747 | 0.868 | 0.485 | 0.363 |
| EKVX | 0.439 | 0.371 | – | 0.381 | 0.38 | 0.806 | 0.711 | 0.475 | 0.236 | 0.135 | 0.533 | 0.513 | 0.363 | 0.135 | 0.135 | 0.801 | 0.588 | 0.531 | 0.206 | 0.169 |
| NCI-H2405 | 0.786 | 0.779 | 0.688 | 0.682 | 0.768 | 0.935 | 0.957 | 0.639 | 0.266 | 0.283 | 0.452 | 0.73 | 0.505 | 0.246 | 0.254 | 0.748 | 0.524 | 0.323 | 0.239 | 0.231 |
| ABC-1 | 0.208 | 0.201 | 0.164 | 0.186 | 0.207 | 0.344 | 0.331 | 0.259 | 0.274 | 0.211 | 0.677 | 0.809 | 0.372 | 0.188 | 0.374 | 0.997 | 0.878 | 0.779 | 0.275 | 0.294 |
| 201T | 0.988 | 0.933 | 0.985 | 0.942 | 0.89 | 1.16 | 1.04 | 1.08 | 0.4 | 0.392 | 0.783 | 0.837 | 0.833 | 0.425 | 0.366 | 0.832 | 0.589 | 0.548 | 0.225 | 0.267 |
| NCI-H1755 | 0.57 | 0.587 | 0.543 | 0.535 | 0.484 | 0.898 | 0.743 | 0.443 | 0.21 | 0.166 | 0.221 | 0.358 | 0.287 | 0.134 | 0.139 | 0.859 | 0.544 | 0.491 | 0.254 | 0.171 |
| NCI-H647 | 0.402 | 0.488 | 0.272 | 0.239 | 0.229 | 0.583 | 0.425 | 0.149 | 0.0614 | 0.0695 | 0.318 | 0.469 | 0.274 | 0.0538 | 0.0717 | 0.392 | 0.125 | 0.0492 | 0.0302 | 0.0464 |
| NCI-H1651 | 0.89 | 0.668 | 0.593 | 0.508 | 0.305 | 0.936 | 0.99 | 0.966 | 0.498 | 0.181 | 0.706 | 0.514 | 0.45 | 0.0787 | 0.115 | 0.176 | 0.182 | 0.176 | 0.138 | 0.0847 |
| NCI-H1437 | 0.386 | 0.43 | 0.403 | 0.4 | 0.401 | 0.437 | 0.448 | 0.443 | 0.148 | 0.115 | 0.423 | 0.409 | 0.355 | 0.0891 | 0.081 | 0.582 | 0.499 | 0.409 | 0.253 | 0.153 |
| NCI-H1975 | 0.882 | 0.719 | 0.634 | 0.626 | 0.677 | 0.526 | 0.452 | 0.26 | 0.169 | 0.149 | 0.534 | 0.699 | 0.314 | 0.167 | 0.156 | 0.706 | 0.948 | 0.829 | 0.498 | 0.213 |
| BEN | 0.588 | 0.633 | 0.469 | 0.486 | 0.433 | 0.687 | 0.51 | 0.267 | 0.16 | 0.122 | 0.566 | 0.398 | 0.254 | 0.163 | 0.155 | 0.662 | 0.328 | 0.264 | 0.189 | 0.207 |
